Source: US12576073B2, “Antiarrhythmic formulation” (InCarda Therapeutics, Inc., priority 2019, dated 2026)
Values after ≈ are worked out from the molar mass of the structure shown. Where a name gives a salt, the structure may show the parent alone. Read-outs that look alike come from different tables or passages of the source.

Tests used:
physchem [1] = conditions: aqueous buffer
[2] = Solubility comparison of different flecainide salts in 0.1M acid media; conditions: for pH: Media (0.1M)
physchem [3] = assay type: physicochemical; conditions: Solubility (mg/mL)
physchem [4] = conditions: thermodynamic from solid
Source text: The suspension was then magnetic stirred (1000 r/min) at RT for 24 hrs or 48 hrs.

[5] = Viscosity and complexation efficiency of flecainide acetate-HPβCD solutions; assay type: physicochemical; conditions: solutions adjusted to pH 5.2 with NaOH
Source text: In this example and the following examples, the (HP)-β-cyclodextrin used is “Cavitron W7 HP7 PHARMA”. The manufacturer (Ashland) specifies: <1.5% beta cyclodextrin (our batch had 1%) and molar substitution is between 0.86 and 1.14 (our batch had 1.05). From the manufacturer's brochure, the typical degree of substitution is 6.0 to 8.0 with an approximate average MW of 1520.
Beyond this concentration, the aerosol output rate can diminish slightly.

[6] = Solubility of flecainide acetate in binary, ternary and quaternary acid mixtures; conditions: acid mixture (acetic/nitric/sulfuric acid), 25 °C, aqueous buffer, thermodynamic from solid
physchem [7] = assay: physchem
[8] = Solubility of flecainide in D/L-lactic acid media; assay type: physicochemical; conditions: thermodynamic from solid
Procedure: D-lactic acid, L-lactic acid, or DL-lactic acid was slowly added portionwise to the suspension while stirring. The system was left to equilibrate for 30 minutes, and the pH was determined. The pH was then adjusted to 5.2-6 with NaOH if necessary. After addition of NaOH, the system was again left to equilibrate for 30 minutes before pH was measured. After the desired pH was achieved, the suspension was stirred (1000 rpm) at ambient temperature for 48 hours. At 24 hours and 48 hours of stirring, samples of each solution were centrifuged at 10000 rpm for 2 minutes and filtered with a 0.45 μm membrane to obtain supernatant for pH determination and HPLC analysis. Solids from each sample were also characterized by X-ray powder diffraction (XRPD) analysis.

[9] = FLE-002 (INSTANT) study: plasma levels of flecainide (Cmax); assay type: in vivo; conditions: human, inhaled, oral inhalation
[10] = tested on: patients with recent onset of symptomatic paroxysmal atrial fibrillation; assay: FLE-002 (INSTANT) study: QRS interval from 12-lead ECG; assay type: in vivo, human; conditions: change from baseline
Beagle dogs = assay: 14-day repeat dose face mask inhalation toxicity study in dogs; conditions: dog, in vivo
Source text: This example describes a 14-day repeated-dose toxicity study via face mask inhalation with 14 day recovery in dogs.
In addition to the aerosol drug concentration, the aerosol particle size distribution was also characterized. The particle size average MMAD and GSD for the Low-, Mid-, and High-dose groups were 2.38 (1.79), 2.03 (1.87) and 2.08 (1.79) microns, respectively, and 1.74 (1.88) microns for vehicle control group. […] Chamber oxygen levels were monitored throughout the exposures. Main study animals were sacrificed on Day 15. Recovery animals were sacrificed on Day 29 following a 14-day recovery period. Endpoints included clinical observations, body weights, ophthalmology, clinical pathology, urinalysis, gross pathology, histopathology, and bioanalytical and toxicokinetic analyses.

[11] = tested on: patients with recent onset of symptomatic paroxysmal atrial fibrillation; conditions: inhaled, Total of all dose groups (N = 99)
[12] = tested on: patients with recent onset of symptomatic paroxysmal atrial fibrillation; assay: FLE-002 (INSTANT) Phase 2 study: conversion of AF to sinus rhythm; assay type: in vivo, human; conditions: within 60 minutes of dosing, evaluable patients
Source text: Patient eligibility for this study is generally consistent with eligibility for IV flecainide. 18 years and older, both male and female sexes are eligible for this study. Inclusion and exclusion criteria are summarized in TABLE 18A and TABLE 18B, respectively.
The study consists of 2 parts: Part A and Part B. Part A (dose finding) evaluates the feasibility of administration of IH Flec. Part B will confirm the dose and will include a pilot sub-study to simulate a patient led scenario with medical supervision.
Part A study. […] IH Flec formulations tested in this study include the ones listed in TABLE 19 (*, “CD” denotes a cyclodextrin-based formulation including 10% (w/v) hydroxypropyl β-cyclodextrin, 90 mM acetic acid buffer, and having a pH of 5.2; **, “iCD-SAC” denotes a cyclodextrin-based formulation including 20% β(w/v) hydroxypropyl β-cyclodextrin, 5 mM acetic acid, and 750 μM saccharin, and having a pH of 5.9).
In this study, for inhalation delivery of flecainide, the estimated total lung doses (eTLDs) were calculated to account for losses of flecainide in the inhalation device and losses of flecainide in subjects' mouth and throat. eTLD was thereby used to denote the dose that actually reached the lungs of the subjects. By design, in all nebulizers there can be a residual volume or mass of drug solution that stays in the nebulizer, and there can also be a percentage of the aerosol caught by subject's throat and mouth. For instance, in this study, it was estimated that 30% of the aerosol was lost in subject's throat and mouth. Therefore the eTLD would be: eTLD=(100−30)%*amount of aerosolized drug that left nebulizer=70%*(amount of drug placed in nebulizer−amount of drug staying in nebulizer).
The AeroEclipse®II BAN inhaler was used for nebulization and inhalation of the exemplary flecainide formulations. It is available as an approved device in several countries across the world including European countries, USA, and Canada. […]

O=C(NCC1CCCCN1)c1cc(OCC(F)(F)F)ccc1OCC(F)(F)F (stereo not shown) [Hydrochloric Acid, flecainide hydrochloride]
solubility (physchem [1]; Concentration (mg/mL) Freebase): 5.34 mg/mL
pH ([2]; hydrochloride): 5.0

O=C(NCC1CCCCN1)c1cc(OCC(F)(F)F)ccc1OCC(F)(F)F (stereo not shown) [flecainide acetate]
solubility (physchem [3]; pH 5.3, aqueous with cosolvent or surfactant or cyclodextrin): 55 mg/mL
solubility (physchem [3]; pH 5.5, aqueous with cosolvent or surfactant or cyclodextrin): 69.7 mg/mL
solubility (physchem [1]): 64 mg/mL
solubility at 48 h (physchem [4]; aqueous with cosolvent or surfactant or cyclodextrin, 48 hrs Flecainide Acetate Solubility): 110 mg/mL
solubility at 24 h (physchem [4]; aqueous with cosolvent or surfactant or cyclodextrin, maximum solubility, calculated as freebase): 125 mg/mL
solubility at 48 h (physchem [4]; aqueous with cosolvent or surfactant or cyclodextrin, solubility (48 hrs), calculated as freebase): 105 mg/mL
solubility at 48 h (physchem [4]; water, 48 hrs Flecainide Acetate Solubility): 65.5 mg/mL
solubility (physchem [4]; water, solubility of flecainide acetate water solution): ~60 mg/mL
HPβCD molecules complexed with flecainide acetate [5]: 80%
pH [2]: 4.6
effect of addition of sodium chloride (e.g. saline) to the formulation ([2]; XRPD confirmed form conversion): precipitation and loss of solubility
solubility [6]: 82.4 mg/mL
solubility (physchem [7]; HPβCD solution with acetic acid, pH 4.9, aqueous with cosolvent or surfactant or cyclodextrin): 136 mg/mL
solubility (physchem [7]; HPβCD solution with acetic acid, pH 5.1, aqueous with cosolvent or surfactant or cyclodextrin): 135 mg/mL
solubility (physchem [7]; HPβCD solution with acetic acid, pH 5.2, aqueous with cosolvent or surfactant or cyclodextrin): 135 mg/mL
solubility (physchem [7]; HPβCD solution with acetic acid, pH 5.5, aqueous with cosolvent or surfactant or cyclodextrin): 131 mg/mL
solubility (physchem [7]; HPβCD solution without acetic acid, pH 6.3, aqueous with cosolvent or surfactant or cyclodextrin): 125 mg/mL

O=C(NCC1CCCCN1)c1cc(OCC(F)(F)F)ccc1OCC(F)(F)F (stereo not shown) [flecainide]
solubility at 24 h ([8]; 20% w/v HPβCD in water with D-lactic acid, aqueous with cosolvent or surfactant or cyclodextrin, 20% w/v HPβCD, D-lactic acid, pH 5.8): 84.8 mg/mL (≈ 205 mM)
solubility at 48 h ([8]; 20% w/v HPβCD in water with D-lactic acid, aqueous with cosolvent or surfactant or cyclodextrin, 20% w/v HPβCD, D-lactic acid, pH 5.5): 88.4 mg/mL (≈ 213 mM)
solubility at 24 h ([8]; 20% w/v HPβCD in water with L-lactic acid, aqueous with cosolvent or surfactant or cyclodextrin, 20% w/v HPβCD, L-lactic acid, pH 6.3): 87.6 mg/mL (≈ 211 mM)
solubility at 48 h ([8]; 20% w/v HPβCD in water with L-lactic acid, aqueous with cosolvent or surfactant or cyclodextrin, 20% w/v HPβCD, L-lactic acid, pH 6): 89.3 mg/mL (≈ 216 mM)
solubility at 24 h ([8]; HPβCD solution with DL-lactic acid, aqueous with cosolvent or surfactant or cyclodextrin, 20% w/v HPβCD, DL-lactic acid, pH 6.5): 72.4 mg/mL (≈ 175 mM)
solubility at 24 h ([8]; pure water with D-lactic acid, aqueous buffer, no excipient (pure water), D-lactic acid, pH 5.1): 90.1 mg/mL (≈ 217 mM)
solubility at 48 h ([8]; pure water with D-lactic acid, aqueous buffer, no excipient (pure water), D-lactic acid, pH 5.4): 91 mg/mL (≈ 220 mM)
solubility at 24 h ([8]; pure water with DL-lactic acid, aqueous buffer, no excipient (pure water), DL-lactic acid, pH 6.1): 76.3 mg/mL (≈ 184 mM)
solubility at 48 h ([8]; pure water with DL-lactic acid, aqueous buffer, no excipient (pure water), DL-lactic acid, pH 6): 73.4 mg/mL (≈ 177 mM)
solubility at 24 h ([8]; pure water with L-lactic acid, aqueous buffer, no excipient (pure water), L-lactic acid, pH 5.6): 96.6 mg/mL (≈ 233 mM)
solubility at 48 h ([8]; pure water with L-lactic acid, aqueous buffer, no excipient (pure water), L-lactic acid, pH 5.1): 97.8 mg/mL (≈ 236 mM)
Cmax ([9]; 30 mg, 30 mg eTLD, read-out: Cmax (mean ± SD)): 0.127 ± 0.0995 µg/mL
Cmax ([9]; 30 mg, 30 mg eTLD, read-out: Cmax Range): 0.0058 to 0.069 µg/mL
Cmax ([9]; 60 mg, 60 mg eTLD, read-out: Cmax (mean ± SD)): 0.199 ± 0.222 µg/mL
Cmax ([9]; 60 mg, 60 mg eTLD, read-out: Cmax Range): 0.0066 to 0.817 µg/mL
Cmax ([9]; 90 mg, 90 mg eTLD, read-out: Cmax (mean ± SD)): 0.248 ± 0.207 µg/mL
Cmax ([9]; 90 mg, 90 mg eTLD, read-out: Cmax Range): 0.017 to 0.834 µg/mL
ΔQRSmax ([10]; 30 mg eTLD): 5.5 ± 13.1 ms
ΔQRSmax ([10]; 60 mg eTLD): 4.2 ± 4.6 ms
ΔQRSmax ([10]; 90 mg eTLD): 4.1 ± 3.2 ms
clinical observation associated with exposure (Beagle dogs): labored respiration during or immediately post exposure
Adverse events: Cough [11]: 51 (52) n (%)
Adverse events: Dizziness [11]: 5 (5) n (%)
Adverse events: Dysphagia [11]: 9 (9) n (%)
Adverse events: Dyspnea [11]: 6 (6) n (%)
Adverse events: Gastrointestinal disorders [11]: 23 (23) n (%)
Adverse events: Hypotension [11]: 7 (7) n (%)
Adverse events: Nervous system disorders [11]: 7 (7) n (%)
Adverse events: Oropharyngeal pain [11]: 14 (14) n (%)
Adverse events: Respiratory, thoracic and mediastinal disorders [11]: 60 (61) n (%)
Adverse events: Salivary hypersecretion [11]: 8 (8) n (%)
Adverse events: Throat irritation [11]: 12 (12) n (%)
Adverse events: Vascular disorders [11]: 10 (10) n (%)
Patients with at least one TEAE [11]: 80 (81) n (%)
Patients with at least one TEAE, Moderate or Severe [11]: 35 (35) n (%)
Patients with at least one TEAE, Severe [11]: 2 (2) n (%)
Patients with at least one TEAE, Study-drug Related [11]: 74 (75) n (%)
Patients with at least one TESAE [11]: 7 (7) n (%)
Patients with at least one TESAE, Moderate or Severe [11]: 6 (6) n (%)
Patients with at least one TESAE, Severe [11]: 2 (2) n (%)
Patients with at least one TESAE, Study-drug Related [11]: 4 (4) n (%)
Conversion Rate (AF to SR) ([12]; 30 mg eTLD): 1/10 (10%)
Conversion Rate (AF to SR) ([12]; 60 mg eTLD): 7/20 (35%)
Conversion Rate (AF to SR) ([12]; 90 mg eTLD): 7/21 (33%)

flecainide nitrate [Nitric Acid]
pH [2]: 4.0
